#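 The compound was tested at five concentrations on cells cultured in 96-well plates, with a 48-hour exposure period. GI50: concentration for 50% inhibition of growth.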 Active and inactive are the calls of the source. No stated cut-off is given here; in the data, active = GI50 up to about 1.1 µM and inactive = higher.
# Experiments:
# Experiment in all cases: NCI tumour cell line growth inhibition, 48 h
# SF-539 = system: SF-539
# HOP-62 = system: HOP-62
# OVCAR-5 = system: OVCAR-5
# UACC-257 = system: UACC-257
# K562 = system: K562
# LOX IMVI = system: LOX IMVI
# SK-MEL-2 = system: SK-MEL-2
# HCC 2998 = system: HCC 2998
# HL-60 = system: HL-60
# SNB-75 = system: SNB-75
# HT-29 = system: HT-29
# M14 = system: M14
# HCT-116 = system: HCT-116
# SK-OV-3 = system: SK-OV-3
# ACHN = system: ACHN
# OVCAR-3 = system: OVCAR-3
# U-251 = system: U-251
# OVCAR-4 = system: OVCAR-4
SMILES,GI50 (SF-539),GI50 (HOP-62),GI50 (OVCAR-5),GI50 (UACC-257),GI50 (K562),GI50 (LOX IMVI),GI50 (SK-MEL-2),GI50 (HCC 2998),GI50 (HL-60),GI50 (SNB-75),GI50 (HT-29),GI50 (M14),GI50 (HCT-116),GI50 (SK-OV-3),GI50 (ACHN),GI50 (OVCAR-3),GI50 (U-251),GI50 (OVCAR-4)
O=c1ccc2ccccc2c2ccccc12,1.97 µM (inactive),3.24 µM (inactive),2.82 µM (inactive),4.82 µM (inactive),3.7 µM (inactive),1.91 µM (inactive),3.43 µM (inactive),9.64 µM (inactive),2.96 µM (inactive),2.94 µM (inactive),2.93 µM (inactive),2.42 µM (inactive),3.7 µM (inactive),3.6 µM (inactive),3.97 µM (inactive),3.4 µM (inactive),2.34 µM (inactive),8.07 µM (inactive)
Nc1nc(N)c(-c2ccccc2)c(C(=O)Nc2ccc(Cl)c(Cl)c2)n1,> 100 µM (inactive),> 100 µM (inactive),> 100 µM (inactive),> 100 µM (inactive),> 100 µM (inactive),> 100 µM (inactive),> 100 µM (inactive),> 100 µM (inactive),> 100 µM (inactive),> 100 µM (inactive),> 100 µM (inactive),> 100 µM (inactive),> 100 µM (inactive),–,> 100 µM (inactive),> 100 µM (inactive),> 100 µM (inactive),> 100 µM (inactive)
Cc1cccc(/C=N/C23CC4CC(CC(C4)C2)C3)c1,> 100 µM (inactive),> 100 µM (inactive),> 100 µM (inactive),> 100 µM (inactive),> 100 µM (inactive),> 100 µM (inactive),> 100 µM (inactive),> 100 µM (inactive),> 100 µM (inactive),> 100 µM (inactive),> 100 µM (inactive),> 100 µM (inactive),> 100 µM (inactive),> 100 µM (inactive),> 100 µM (inactive),> 100 µM (inactive),> 100 µM (inactive),> 100 µM (inactive)
COc1ccc(C2CC(C)=Nc3c(O)nc(S)nc3N2)cc1 (stereo not given),24.5 µM (inactive),25.4 µM (inactive),23.4 µM (inactive),16.8 µM (inactive),16.6 µM (inactive),17.4 µM (inactive),63.8 µM (inactive),16.7 µM (inactive),17.7 µM (inactive),17.6 µM (inactive),28.5 µM (inactive),19.6 µM (inactive),16.5 µM (inactive),18.1 µM (inactive),18.7 µM (inactive),22.4 µM (inactive),17.3 µM (inactive),–
O=C1C(c2ccccc2)=C(c2ccccc2)C(c2ccc(-c3ccc(C4=C(c5ccccc5)C(=O)C(c5ccccc5)=C4c4ccccc4)cc3)cc2)=C1c1ccccc1,> 100 µM (inactive),> 100 µM (inactive),> 100 µM (inactive),> 100 µM (inactive),> 100 µM (inactive),> 100 µM (inactive),> 100 µM (inactive),–,> 100 µM (inactive),48.1 µM (inactive),> 100 µM (inactive),> 100 µM (inactive),> 100 µM (inactive),> 100 µM (inactive),–,> 100 µM (inactive),> 100 µM (inactive),> 100 µM (inactive)
Cc1ccc2c(c1)CN1c3ccc(C)cc3CN2C1c1ccccc1O,49 µM (inactive),85.9 µM (inactive),18.6 µM (inactive),–,34.7 µM (inactive),58.5 µM (inactive),48.9 µM (inactive),–,14.8 µM (inactive),0.667 µM (active),42 µM (inactive),> 100 µM (inactive),18.7 µM (inactive),> 100 µM (inactive),40.3 µM (inactive),21.5 µM (inactive),38.5 µM (inactive),57 µM (inactive)
O=C1CC2CC=C[C@H]3c4cc5c(cc4C(=O)N1C23)OCO5 (stereo not given in full),> 50 µM (inactive),> 50 µM (inactive),–,> 50 µM (inactive),> 50 µM (inactive),> 50 µM (inactive),–,> 50 µM (inactive),> 50 µM (inactive),> 50 µM (inactive),> 50 µM (inactive),> 50 µM (inactive),> 50 µM (inactive),> 50 µM (inactive),> 50 µM (inactive),> 50 µM (inactive),> 50 µM (inactive),–
COC[C@@H]1[C@H]2OC(C)(C)O[C@H]2C(=O)N1C(=O)c1ccc(OC)cc1,> 100 µM (inactive),> 100 µM (inactive),> 100 µM (inactive),> 100 µM (inactive),> 100 µM (inactive),> 100 µM (inactive),> 100 µM (inactive),> 100 µM (inactive),> 100 µM (inactive),> 100 µM (inactive),> 100 µM (inactive),> 100 µM (inactive),> 100 µM (inactive),> 100 µM (inactive),> 100 µM (inactive),> 100 µM (inactive),> 100 µM (inactive),> 100 µM (inactive)
CCOC(=O)[C@@]12C(C)=CC(=O)O[C@]1(C)C[C@H]2C#N,> 100 µM (inactive),> 100 µM (inactive),–,> 100 µM (inactive),> 100 µM (inactive),> 100 µM (inactive),> 100 µM (inactive),> 100 µM (inactive),> 100 µM (inactive),20.8 µM (inactive),> 100 µM (inactive),> 100 µM (inactive),> 100 µM (inactive),> 100 µM (inactive),> 100 µM (inactive),> 100 µM (inactive),> 100 µM (inactive),> 100 µM (inactive)
COc1cc(Br)c(CC2NCCc3cc(OC)c(OC)cc32)cc1OC (stereo not given),–,> 100 µM (inactive),40.9 µM (inactive),40.2 µM (inactive),32.8 µM (inactive),–,> 100 µM (inactive),34.9 µM (inactive),28.4 µM (inactive),70.3 µM (inactive),34 µM (inactive),44.7 µM (inactive),24.4 µM (inactive),> 100 µM (inactive),79.1 µM (inactive),84.9 µM (inactive),84.3 µM (inactive),> 100 µM (inactive)
COC(=O)/C(C)=C/[N+](=O)[O-],18.8 µM (inactive),25.4 µM (inactive),19.7 µM (inactive),15.8 µM (inactive),3.4 µM (inactive),18.7 µM (inactive),19.7 µM (inactive),17.3 µM (inactive),14.1 µM (inactive),16.3 µM (inactive),20.6 µM (inactive),15.7 µM (inactive),8.04 µM (inactive),19.2 µM (inactive),19.5 µM (inactive),16 µM (inactive),18.5 µM (inactive),17.5 µM (inactive)
COc1ccc(C2COc3c(ccc(OC)c3OC)C2=O)cc1OC (stereo not given),> 100 µM (inactive),> 100 µM (inactive),–,> 100 µM (inactive),> 100 µM (inactive),> 100 µM (inactive),–,> 100 µM (inactive),> 100 µM (inactive),> 100 µM (inactive),> 100 µM (inactive),> 100 µM (inactive),> 100 µM (inactive),> 100 µM (inactive),> 100 µM (inactive),> 100 µM (inactive),> 100 µM (inactive),> 100 µM (inactive)
O=c1c2ccccc2nc(-c2cccc(Cl)c2)n1NC1OC(CO)C(O)C(O)C1O (stereo not given),> 100 µM (inactive),> 100 µM (inactive),> 100 µM (inactive),> 100 µM (inactive),> 100 µM (inactive),–,> 100 µM (inactive),> 100 µM (inactive),> 100 µM (inactive),> 100 µM (inactive),> 100 µM (inactive),> 100 µM (inactive),> 100 µM (inactive),> 100 µM (inactive),> 100 µM (inactive),> 100 µM (inactive),> 100 µM (inactive),> 100 µM (inactive)
O=c1[nH]c(=O)n(C2CC(O)C(CO)O2)cc1C#Cc1ccc(C(F)(F)F)cc1 (stereo not given),> 100 µM (inactive),> 100 µM (inactive),> 100 µM (inactive),> 100 µM (inactive),> 100 µM (inactive),> 100 µM (inactive),> 100 µM (inactive),> 100 µM (inactive),> 100 µM (inactive),61.5 µM (inactive),> 100 µM (inactive),> 100 µM (inactive),> 100 µM (inactive),> 100 µM (inactive),> 100 µM (inactive),> 100 µM (inactive),> 100 µM (inactive),> 100 µM (inactive)
C[C@]12CCC(=O)C=C1CC[C@@H]1C2CC[C@]2(C)Nc3[nH]ncc3CC12 (stereo not given in full),> 100 µM (inactive),> 100 µM (inactive),> 100 µM (inactive),> 100 µM (inactive),> 100 µM (inactive),–,> 100 µM (inactive),> 100 µM (inactive),> 100 µM (inactive),30.3 µM (inactive),> 100 µM (inactive),> 100 µM (inactive),> 100 µM (inactive),> 100 µM (inactive),> 100 µM (inactive),> 100 µM (inactive),> 100 µM (inactive),> 100 µM (inactive)
O=C(N/N=C/c1cc(Cl)cc(Cl)c1O)c1ccncc1,68.5 µM (inactive),53.2 µM (inactive),39.1 µM (inactive),> 100 µM (inactive),> 100 µM (inactive),> 100 µM (inactive),–,> 100 µM (inactive),26.4 µM (inactive),> 100 µM (inactive),> 10 µM (inactive),> 100 µM (inactive),> 100 µM (inactive),> 100 µM (inactive),68.9 µM (inactive),32.2 µM (inactive),92.3 µM (inactive),–
